In publication PMC7070908, “Structure-Guided Identification of Black Cohosh (Actaea racemosa) Triterpenoids with In Vitro Activity against Multiple Myeloma” (Molecules, 2020):
In brackets after ≈: the same amount, converted by molar mass.

How the values were obtained:
Type in all cases: cell-based, human
[1] = test system: NCI-H929 myeloma cell line; experiment: Cytotoxicity, flow cytometry (AnnexinV/propidium iodide negativity), NCI-H929; conditions: for MM Cells % Alive NCI-H929 / activity on NCI-H929 (in words): 24 h; for activity on NCI-H929 (in words): up to 37.5 µM
Description: (§1) Induction of apoptosis was measured in myeloma cell lines NCI-H929, OPM-2, and U266 as well as in peripheral blood mononuclear cells (PBMCs) of healthy donors by flow cytometry using established protocols thereby staining the cells with AnnexinV-fluorescein isothiocyanate and propidium iodide. Bortezomib (Eubio, Vienna, Austria) was used as positive control. Cell lines were purchased from DSMZ (Braunschweig, Germany) and routinely fingerprinted and tested for mycoplasma negativity. All cells (cell lines and PBMC) were grown in RPMI-1640 medium (Life Technologies, Paisley, UK) supplemented with 10% fetal calf serum (FCS; PAA, Linz, Austria), L-glutamine 100 µg/mL, and penicillin-streptomycin 100 U/mL. PBMCs from healthy donors were used after obtaining written informed consent at the University Hospital Salzburg (ethics committee approval 415-E/1287/6-2011). Cells were subjected to Ficoll separation (Ficoll PaqueTM) and incubated in RPMI-1640 Media with supplements as above. In brief, 0.5 × 10^6 myeloma cells/mL or similar numbers of PMBCs were incubated for 24 h and 48 h with or without the tested compounds dissolved in dimethyl sulfoxide at different concentrations. At least three analyses in triplicates were performed for each cell line and a solvent control was always included. As a positive control, the proteasome inhibitor bortezomib (BTZ) was used at concentrations of 10 and 5 nM. The extent of non-apoptotic cells (AnnexinV/propidium iodide negativity) was calculated as percentage of viable cells in respect to the untreated control. Data are shown as mean percentage of viable cells and standard error of the mean (SEM) (error bars).

[2] = test system: OPM-2 myeloma cell line; experiment: Cytotoxicity, flow cytometry (AnnexinV/propidium iodide negativity), OPM-2; conditions: for MM Cells % Alive OPM-2 / activity on OPM-2 (in words): 24 h; for activity on OPM-2 (in words): up to 37.5 µM
Description: as §1

[3] = test system: U266 myeloma cell line; experiment: Cytotoxicity, flow cytometry (AnnexinV/propidium iodide negativity), U266; conditions: for MM Cells % Alive U266 / activity on U266 (in words): 24 h; for activity on U266 (in words): up to 37.5 µM
Description: as §1

[4] = test system: peripheral blood mononuclear cells (PBMCs) of healthy donors; experiment: Cytotoxicity, flow cytometry (AnnexinV/propidium iodide negativity), PBMC of healthy donors; conditions: for PBMC % Alive: 24 h, second round (Table 3)
Description: as §1

[5] = 5 nM, positive control (Table 3)
[6] = 10 nM, positive control (Table 3)
[7] = 12.5 µM, second round (Table 3)
[8] = 37.5 µM, second round (Table 3)

Compound	MM Cells % Alive NCI-H929 [1, 7]	MM Cells % Alive NCI-H929 ([1]; 25 µM, second round (Table 3))	MM Cells % Alive NCI-H929 [1, 8]	activity on NCI-H929 (in words) [1]	MM Cells % Alive OPM-2 [2, 7]	MM Cells % Alive OPM-2 ([2]; 25 µM, second round (Table 3))	MM Cells % Alive OPM-2 [2, 8]	activity on OPM-2 (in words) [2]	MM Cells % Alive U266 [3, 7]	MM Cells % Alive U266 ([3]; 25 µM, second round (Table 3))	MM Cells % Alive U266 [3, 8]	activity on U266 (in words) [3]	further results
CC(C)C[C@H](NC(=O)[C@H](Cc1ccccc1)NC(=O)c1cnccn1)B(O)O [BTZ, bortezomib, reference compound]													MM Cells % Alive NCI-H929 [1, 5]: 3.0 ± 1.0%; MM Cells % Alive NCI-H929 [1, 6]: 6.3 ± 5.4%; MM Cells % Alive OPM-2 [2, 5]: 85.3 ± 7.6%; MM Cells % Alive OPM-2 [2, 6]: 66.0 ± 9.4%; MM Cells % Alive U266 [3, 5]: 80.7 ± 14.1%; MM Cells % Alive U266 [3, 6]: 25.0 ± 8.3%
CC1CC2OC3(OC2C(C)(C)O)C1C1(C)CCC24CC25CCC(OC2OCC(O)C(O)C2O)C(C)(C)C5CCC4C1(C)C3O [Compound 5, cimigenol-3-O-α-L-arabinopyranoside]	98.8 ± 0.9%	97.0 ± 1.2%	96.3 ± 1.3%	no activity	99.8 ± 2.0%	103.3 ± 1.4%	103.5 ± 1.3%	no activity	95.0 ± 3.1%	95.8 ± 2.8%	93.5 ± 3.5%	no activity	
COC(C)(C)C1OC23OC1CC(C)C2C1(C)CCC24CC25CCC(OC2OCC(O)C(O)C2O)C(C)(C)C5CCC4C1(C)C3O [Compound 8, 25-O-methyl-cimigenol-3-O-β-D-xylopyranoside]	84.8 ± 5.0%	31.3 ± 6.6%	5.0 ± 1.7%		97.8 ± 2.1%	84.3 ± 4.5%	27.0 ± 9.4%		102.0 ± 3.0%	97.5 ± 3.8%	81.0 ± 11.9%		PBMC % Alive ([4]; 12.5 µM): 104.3 ± 0.3%; PBMC % Alive ([4]; 25 µM): 96.3 ± 1.7%; PBMC % Alive ([4]; 37.5 µM): 64.3 ± 8.0%; IC50 PBMC ([4]; incubation for 24 h): 26.0 µg/mL (≈ 41 µM); IC50 NCI-H929 ([1]; incubation for 24 h): 14.2 µg/mL (≈ 22.4 µM); IC50 OPM-2 ([2]; incubation for 24 h): 20.7 µg/mL (≈ 32.6 µM); IC50 U266 ([3]; incubation for 24 h): 31.1 µg/mL (≈ 49 µM)
C=C(C)C1OC23OC1CC(C)C2C1(C)CCC24CC25CCC(OC2OCC(O)C(O)C2O)C(C)(C)C5CCC4C1(C)C3O [Compound 9, 25-anhydrocimigenol-3-O-α-L-arabinopyranoside]	96.0 ±1.0%	92.8 ± 1.7%	92.0 ± 1.5%	no effect	95.8 ± 2.4%	100.0 ± 1.9%	104.0 ± 4.7%	no effect	101.5 ± 5.1%	101.8 ± 4.3%	101.3 ± 3.3%	no effect	
